In assay [1] the test system is tau protein in PC12 cells. The following applies: cited from earlier work.
Assay [2] deals with Aβ40 in N2a/AβPPswe cells. In words: Aβ40 ELISA of N2a/AβPPswe cells treated with THC or caffeine. The settings on record: THC 0.25-2500 nM or caffeine 0.625-10 μM. Format: cell-based, human. (In general: ELISA stands for enzyme-linked immunosorbent assay.)
The subject of assay [3] is Aβ. The settings on record: cited from earlier work.
The subject of assay [4] is hepatic mitochondrial DNA. The following applies: mice; cited from earlier work.
Assay [5] has as its system Aβ in neuroblastoma cells. The following applies: cited from earlier work.
Assay [6] deals with AβPP. The settings on record: transgenic model of AD; cited from earlier work.
Assay [7] has as its system Aβ. The settings on record: transgenic model of AD; cited from earlier work.
The test system of assay [8] is Aβ aggregation. The following applies: PC12 cells study; cited from earlier work.
Assay [9] concerns tau or neurofilament. The settings on record: induced by wortmannin, calyculin A, okadaic acid; N2a and SH-SY5Y cells; cited from earlier work.
For assay [10], the system named is Aβ. The settings on record: entorhinal cortex and hippocampus; transgenic mice model of AD; cited from earlier work.
Assay [11] deals with Aβ. The settings on record: rats; cited from earlier work.
Assay [12] concerns GSK-3β phosphorylation. The settings on record: melatonin 100 μM at the cellular level; cited from earlier work.
For assay [13], the system named is Aβ in N2A cells. The following applies: cited from earlier work.
Assay [14] concerns Aβ. The following applies: frontal cortex; transgenic mice; cited from earlier work.
Assay [15] concerns Aβ. The settings on record: rat model of sporadic AD; cited from earlier work.
In assay [16] the test system is mitochondrial complexes I and IV. The following applies: in vivo; cited from earlier work.
In assay [17] the test system is Aβ aggregation. The settings on record: neuronal cells; cited from earlier work.
The subject of assay [18] is mitochondrial function. The following applies: Alzheimer's mice; cited from earlier work.
Assay [19] has as its system Aβ1-41. The settings on record: transgenic mice; cited from earlier work.
In assay [20] the test system is Aβ in N2a/AβPPswe cells. In words: Sandwich ELISA of Aβ in N2a/AβPPswe cells treated with THC and CB1 inhibitor rimonabant. The assay is classed as cell-based, human. Here is the method:
The mechanism of action was elucidated for THC's effect on Aβ levels using a sandwich ELISA assay. N2a/AβPPswe cells, as discussed in Example 1, were suspended to 2×10^5/mL, 3 mL plated into each well, and grown in DMEM with 10% fetal bovine serum, 100 U/mL penicillin, 100 μg/mL streptomycin, and 400 μg/mL G418 (Invitrogen), at 37° C. in the presence of 5% CO2. N2a/AβPPswe cells were subcultured using trypsin, and pipetted numerous times to ensure cells were separated into individual cells. Cells were counted, as provided in Example 1, and proper amount of cell medium and fresh medium was added into new flasks according to the ratio of dilution. Pipetting was performed 10 times to homogenize cells, and 3 mL of cells were seeded into medium into each 6 well plate. When one pipette was used up, the cells were mixed in the flask before using them for the next pipette. Compounds were suspended in DMSO.
12 hours after cells were plated, cells were treated with 25 nM of Δ9-THC (T4764-1ML Sigma Aldrich, Merck KGaA; Darmstadt, Germany), with the known inhibitor of the CB1 receptor, rimonabant, at 0 μM, 100 μM, 10 μM, 1 μM, or 0.1 μM rimonabant. Untreated N2a/AβPPswe cells were used as a control. Treatment was then washed out, i.e. the medium was then removed from the cultures and 3 mL of media containing the treatment compounds were added. Cells were collected at 12 hours afterwards, 48 hours afterwards, 60 hours afterwards, and 72 hours afterwards, and ELISA was conducted on the cells.
ELISA assay was performed on the cells using 50 μL of goat anti-PWT1-42 antibody solution, which was incubated overnight, followed by a 1-hour incubation with 0.1% I-block buffer. The tissue culture supernatant was diluted 1:10 with diluent buffer containing a protease inhibitor. Standards were prepared by serial dilution, as provided in Example 1. The plate was washed and 50 μL of sample or standard was added with triplication. 50 μL of both Biosource 40/42 (HS) (primary antibody) Aβ and a standard solution was added to each well and incubated for 3 hours followed by 5× wash with PBST. […]

Where two headings read alike, the source gives them in different places.

`C=C(C)[C@@H]1CCC(C)=C[C@H]1c1c(O)cc(CCCCC)cc1O` [Cannabidiol]: the “β-amyloid-induced tau protein hyperphosphorylation” value in [1] is on record as “inhibits β-amyloid-induced tau protein hyperphosphorylation”.

On to `Cn1c(=O)c2c(ncn2C)n(C)c1=O` [caffeine], for which the “Aβ40 levels versus control” value is “significant reduction” in assay [2] (6 hours, FIG. 1A); “exponential drop” in [2] (24 hours, FIG. 1B); “significant difference” in assay [2] (48 hours, FIG. 1C). In assay [3] (mouse model), the “Serum Aβ40 levels” value is on record as “lower serum Aβ40 levels”. In addition, the “Brain Aβ levels” value in assay [3] (transgenic mouse model) was “lowering brain Aβ levels”.

With `COc1ccc2[nH]cc(CCNC(C)=O)c2c1` [melatonin], the “Ethanol-induced hepatic mitochondrial DNA depletion” value in [4] was “protects against ethanol-induced hepatic mitochondrial DNA depletion”. Besides, the Aβ levels result in assay [5] is “reduction of Aβ levels”; in assay [7] it was “reduction in Aβ levels”; in assay [13], “reduced Aβ levels”; in assay [14], “reduces Aβ levels”. Besides, the AβPP levels result in assay [6] is “no change in AβPP levels”. Further, the Aβ aggregation result is on record as “prevents Aβ aggregation” in assay [8] and “reduced Aβ aggregation” in assay [17]. Besides, the “Tau or neurofilament hyperphosphorylation” value in [9] is listed as “efficiently attenuates tau or neurofilament hyperphosphorylation”. Besides, the “Aggregation of Aβ” value in assay [10] is on record as “decreased the aggregation of Aβ”. For the same compound, the “Hippocampal Aβ generation” value in assay [11] is on record as “reduced hippocampal Aβ generation”. The “Decreased GSK-3β phosphorylation” value in assay [12] was “about 40%”. Further, the Aβ accumulation result in [15] is recorded as “attenuates Aβ accumulation”. Besides, the “Inhibition of mitochondrial complexes I and IV induced by ruthenium red” value in [16] was “prevented the inhibition of mitochondrial complexes I and IV”. The Mitochondrial function entry in assay [18] is “restores mitochondrial function”. Further, the Aβ1-41 levels entry in [19] is reported as “decreased Aβ1-41 levels”.

Turning to `Cc1c(C(=O)NN2CCCCC2)nn(-c2ccc(Cl)cc2Cl)c1-c1ccc(Cl)cc1` [rimonabant], the “Block of THC's Aβ lowering by CB1 antagonist” value in assay [20] (antagonist at 10^−4 M with 25 nM THC) was “partially blocked”; in assay [20] (antagonist at 10^−7 M with 25 nM THC), “inhibition function is lost”.

(Values after patent US11446276B2, “Extreme low dose THC as a therapeutic and prophylactic agent for Alzheimer's disease” (University of South Florida, priority 2015, dated 2022).)
